Measurements reported in US20250064947A1, “CYTOTOXICITY TARGETING CHIMERAS FOR FIBROBLAST ACTIVATION PROTEIN-EXPRESSING CELLS” (Glaxosmithkline Intellectual Property Development Limited, priority 2022, published 2025).

target: T1, FAP (Homo sapiens, UniProt Q12884); assay: Antibody dependent cellular cytotoxicity (ADCC) reporter assay; type: cell-based; design: key to ADCC Reporter Assay pEC50: Inactive = pEC50 < 5; details: WI-38 target cells; Jurkat FcγRIIIa NFAT-luciferase reporter cells; with anti-cotinine antibody (SEQ ID NO: 11/12); 12-18 hours; average if more than one run
T1 construct: Target cells: WI-38 cells (typically 1000-20,000 cells per well); endogenous in cells; host or cells: WI-38 cells
T1 sequence (Q12884 1-760): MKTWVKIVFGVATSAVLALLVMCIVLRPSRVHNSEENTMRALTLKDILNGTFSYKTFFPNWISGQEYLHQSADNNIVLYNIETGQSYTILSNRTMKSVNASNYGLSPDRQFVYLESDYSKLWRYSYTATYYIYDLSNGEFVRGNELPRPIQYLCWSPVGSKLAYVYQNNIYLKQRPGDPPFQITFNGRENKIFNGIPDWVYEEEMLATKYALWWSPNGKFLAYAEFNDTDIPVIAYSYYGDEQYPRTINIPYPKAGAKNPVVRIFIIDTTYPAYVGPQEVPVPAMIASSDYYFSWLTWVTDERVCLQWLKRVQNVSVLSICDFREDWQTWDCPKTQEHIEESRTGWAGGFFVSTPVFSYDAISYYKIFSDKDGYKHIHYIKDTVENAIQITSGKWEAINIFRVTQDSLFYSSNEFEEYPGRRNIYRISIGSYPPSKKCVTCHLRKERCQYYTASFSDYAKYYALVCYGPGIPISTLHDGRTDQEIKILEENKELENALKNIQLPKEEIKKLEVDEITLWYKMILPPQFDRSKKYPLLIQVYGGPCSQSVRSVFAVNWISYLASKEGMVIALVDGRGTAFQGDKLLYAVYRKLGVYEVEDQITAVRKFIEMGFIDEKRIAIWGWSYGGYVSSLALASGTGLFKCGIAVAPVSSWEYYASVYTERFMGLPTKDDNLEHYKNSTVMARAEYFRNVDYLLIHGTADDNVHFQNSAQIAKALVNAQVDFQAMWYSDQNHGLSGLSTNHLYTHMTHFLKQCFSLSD
Experimental: An antibody dependent cellular cytotoxicity (ADCC) reporter assay was conducted using the following four assay components: (i) ARM compound of Formula (I) targeting FAP (concentrations ranging from […]); (ii) anti-cotinine antibody having a heavy chain sequence of SEQ ID NO: 11 and a light chain sequence of SEQ ID NO: 12 (rabbit variable region with human IgG1 Fc domain containing DE mutation (S239D/I332E)) (concentrations ranging from 0.01 μg/mL 200 μg/mL); (iii) Target cells: WI-38 cells (typically 1000-20,000 cells per well); and (iv) Reporter cells—Jurkat cells engineered to express FcγRIIIa with a reporter gene luciferase under the control of the NFAT promoter (typically 3000-75,000 cells per well). Reagents were combined in final volume of 20 μL in 384—well tissue culture treated plate. All four assay components were incubated together for about 12-18 hours. Thereafter, BioGlo Detection reagent (Promega) was added to the wells to lyse the cells and provide a substrate for the luciferase reporter protein.
Luminescence signal was measured on a microplate reader capable of measuring luminescence and signal:background was calculated by dividing the signal of a test well by the signal obtained when no compound of formula (I) was included in the assay. EC50 calculations were done using Graphpad Prism Software, specifically a nonlinear regression curve fit (Y=Bottom+(Top−Bottom)/(1+10^((Log EC50−X)*HillSlope))).
ARMs compounds of Formula (I) were tested for ADCC activity in the above assay in one or more experimental runs and the results are shown in Table 3 below. Potency of the compounds of Formula (I) is reported as a pEC50 values. The pEC50 value is the negative log of the EC50 value, wherein the EC50 value is half maximal effective concentration measured in molar (M). For compounds tested in more than one experimental run, the pEC50 value is reported as an average.

SMILES | ADCC Reporter Assay pEC50
CN(CCNC(=O)[C@H]1CC[C@H](NC(=O)[C@H]2CC[C@H](NC(=O)CCCO[C@H]3CC[C@H](OCCNC(=O)[C@H]4CC(=O)N(C)[C@@H]4c4cccnc4)CC3)CC2)CC1)c1ccc2nccc(C(=O)NCC(=O)N3CC(F)(F)C[C@H]3C#N)c2c1 [Example 2, N-(2-((S)-2-cyano-4,4-difluoropyrrolidin-1-yl)-2-oxoethyl)-6-(methyl(2-((1R,4r)-((1R,4R)-4-(4-(((1S,4R)-4-(2-((2S,3S)-1-methyl-5-oxo-2-(pyridin-3-yl)pyrrolidine-3-carboxamido)ethoxy)cyclohexyl)oxy)butanamido)cyclohexane-1-carboxamido)cyclohexane-1-carboxamido)ethyl)amino)quinoline-4-carboxamide] | Inactive^1
CN(CCNC(=O)CCCO[C@H]1CC[C@H](OCCNC(=O)[C@H]2CC[C@H](NC(=O)CCCO[C@H]3CC[C@H](OCCNC(=O)[C@H]4CC(=O)N(C)[C@@H]4c4cccnc4)CC3)CC2)CC1)c1ccc2nccc(C(=O)NCC(=O)N3CC(F)(F)C[C@H]3C#N)c2c1 [Example 3, N-(2-((S)-2-cyano-4,4-difluoropyrrolidin-1-yl)-2-oxoethyl)-6-(methyl(2-(4-(((1R,4r)-4-(2-((1R,4R)-4-(4-(((1S,4R)-4-(2-((2S,3S)-1-methyl-5-oxo-2-(pyridin-3-yl)pyrrolidine-3-carboxamido)ethoxy)cyclohexyl)oxy)butanamido)cyclohexane-1-carboxamido)ethoxy)cyclohexyl)oxy)butanamido)ethyl)amino)quinoline-4-carboxamide] | Inactive
CN(CCNC(=O)[C@H]1CC[C@H](NC(=O)CCCO[C@H]2CC[C@H](OCCNC(=O)[C@H]3CC(=O)N(C)[C@@H]3c3cccnc3)CC2)CC1)c1ccc2nccc(C(=O)NCC(=O)N3CC(F)(F)C[C@H]3C#N)c2c1 [Example 4, N-(2-((S)-2-cyano-4,4-difluoropyrrolidin-1-yl)-2-oxoethyl)-6-(methyl(2-((1R,4r)-4-(4-(((1S,4R)-4-(2-((2S,3S)-1-methyl-5-oxo-2-(pyridin-3-yl)pyrrolidine-3-carboxamido)ethoxy)cyclohexyl)oxy)butanamido)cyclohexane-1-carboxamido)ethyl)amino)quinoline-4-carboxamide] | Inactive
CN(CCNC(=O)CCOCCOCCOCCOCCOCCOCCOCCOCCOCCOCCOCCOCCNC(=O)[C@H]1CC(=O)N(C)[C@@H]1c1cccnc1)c1ccc2nccc(C(=O)NCC(=O)N3CC(F)(F)C[C@H]3C#N)c2c1 [Example 5, N-(2-((S)-2-cyano-4,4-difluoropyrrolidin-1-yl)-2-oxoethyl)-6-(methyl(1-((2S,3S)-1-methyl-5-oxo-2-(pyridin-3-yl)pyrrolidin-3-yl)-1,41-dioxo-5,8,11,14,17,20,23,26,29,32,35,38-dodecaoxa-2,42-diazatetratetracontan-44-yl)amino)quinoline-4-carboxamide] | Inactive

same assay, conditions: WI-38 target cells; Jurkat FcγRIIIa NFAT-luciferase reporter cells; with anti-cotinine antibody (SEQ ID NO: 11/12); 12-18 hours; average if more than one run; read-out: ADCC Reporter Assay pEC50 (converted)

SMILES | EC50
CN(CCNC(=O)[C@H]1CC[C@H](NC(=O)CCCO[C@H]2CC[C@H](OCCNC(=O)[C@H]3CC[C@H](NC(=O)CCCO[C@H]4CC[C@H](OCCNC(=O)[C@H]5CC(=O)N(C)[C@@H]5c5cccnc5)CC4)CC3)CC2)CC1)c1ccc2nccc(C(=O)NCC(=O)N3CC(F)(F)C[C@@H]3C#N)c2c1 (racemic) [Example 1, N-(2-((S)-2-Cyano-4,4-difluoropyrrolidin-1-yl)-2-oxoethyl)-6-(methyl(2-((1R,4R)-4-(4-(((1R,4R)-4-(2-((1R,4R)-4-(4-(((1 S,4R)-4-(2-((2S,3S)-1-methyl-5-oxo-2-(pyridin-3-yl)pyrrolidine-3-carboxamido)ethoxy)cyclohexyl)oxy)butanamido)cyclohexane-1-carboxamido)ethoxy)cyclohexyl)oxy)butanamido)cyclohexane-1-carboxamido)ethyl)amino) quinoline-4-carboxamide] | 3.98 nM
CN(CCNC(=O)CCOCCOCCOCCOCCOCCOCCOCCOCCOCCOCCOCCOCCOCCOCCOCCOCCOCCOCCOCCOCCNC(=O)[C@H]1CC(=O)N(C)[C@@H]1c1cccnc1)c1ccc2nccc(C(=O)NCC(=O)N3CC(F)(F)C[C@H]3C#N)c2c1 [Example 6, N-(2-((S)-2-cyano-4,4-difluoropyrrolidin-1-yl)-2-oxoethyl)-6-(methyl(1-((2S,3S)-1-methyl-5-oxo-2-(pyridin-3-yl)pyrrolidin-3-yl)-1,65-dioxo-5,8,11,14,17,20,23,26,29,32,35,38,41,44,47,50,53,56,59,62-icosaoxa-2,66-diazaoctahexacontan-68-yl)amino)quinoline-4-carboxamide] | 12.6 nM
CN(CCNC(=O)CCOCCOCCOCCOCCOCCOCCOCCOCCOCCOCCOCCOCCOCCOCCOCCOCCOCCOCCOCCOCCOCCOCCOCCOCCNC(=O)[C@H]1CC(=O)N(C)[C@@H]1c1cccnc1)c1ccc2nccc(C(=O)NCC(=O)N3CC(F)(F)C[C@H]3C#N)c2c1 [Example 7, N-(2-((S)-2-Cyano-4,4-difluoropyrrolidin-1-yl)-2-oxoethyl)-6-(methyl(1-((2S,3S)-1-methyl-5-oxo-2-(pyridin-3-yl)pyrrolidin-3-yl)-1,77-dioxo-5,8,11,14,17,20,23,26,29,32,35,38,41,44,47,50,53,56,59,62,65,68,71,74-tetracosaoxa-2,78-diazaoctacontan-80-yl)amino)quinoline-4-carboxamide] | 5.01 nM
CN1C(=O)C[C@H](C(=O)NCCOCCOCCOCCOCCOCCOCCOCCOCCOCCOCCOCCOCCOCCOCCOCCNC(=O)COc2ccc3nccc(C(=O)NCC(=O)N4CCC[C@@H]4C#N)c3c2)[C@H]1c1cccnc1 [Example 8, N-(2-((R)-2-cyanopyrrolidin-1-yl)-2-oxoethyl)-6-((1-((2S,3S)-1-methyl-5-oxo-2-(pyridin-3-yl)pyrrolidin-3-yl)-1,51-dioxo-5,8,11,14,17,20,23,26,29,32,35,38,41,44,47-pentadecaoxa-2,50-diazadopentacontan-52-yl)oxy)quinoline-4-carboxamide] | 3.98 nM
CN1C(=O)C[C@H](C(=O)NCCOCCOCCOCCOCCOCCOCCOCCOCCOCCOCCOCCOCCOCCOCCOCCOc2ccc3c(C(=O)NCC(=O)N4CCC[C@H]4C#N)ccnc3c2)[C@H]1c1cccnc1 [Example 9, N-(2-((S)-2-cyanopyrrolidin-1-yl)-2-oxoethyl)-7-((1-((2S,3S)-1-methyl-5-oxo-2-(pyridin-3-yl)pyrrolidin-3-yl)-1-oxo-5,8,11,14,17,20,23,26,29,32,35,38,41,44,47-pentadecaoxa-2-azanonatetracontan-49-yl)oxy)quinoline-4-carboxamide] | > 1000 nM
CN1C(=O)C[C@H](C(=O)NCCOCCOCCOCCOCCOCCOCCOCCOCCOCCOCCOCCOCCOCCOCCOCCNC(=O)COc2ccc3c(C(=O)NCC(=O)N4CCC[C@H]4C#N)ccnc3c2)[C@H]1c1cccnc1 [Example 10, N-(2-((S)-2-cyanopyrrolidin-1-yl)-2-oxoethyl)-7-((1-((2S,3S)-1-methyl-5-oxo-2-(pyridin-3-yl)pyrrolidin-3-yl)-1,51-dioxo-5,8,11,14,17,20,23,26,29,32,35,38,41,44,47-pentadecaoxa-2,50-diazadopentacontan-52-yl)oxy)quinoline-4-carboxamide] | > 1000 nM
